Where “and” joins values, the source holds several entries; their conditions need not be identical. Equal entries are not always repeated. Calls of active or inactive are those of the source.
Key:
Cytochrome P450 3A4 = Cytochrome P450 3A4 (Homo sapiens, UniProt P08684);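 note: CYP3A4 tested as one member of a cytochrome P450 panel screen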
[1] = molecular target: T1, Corticotropin-releasing factor receptor 2/Corticotropin-releasing factor-binding protein (Homo sapiens, UniProt P24387+Q13324); experiment: activators of CRF receptor 2 with binding protein – uHTS hits, confirmation (AID 602473); type: functional; details: read-out: EC50_Mean
T1 sequence (Q13324 whole entry): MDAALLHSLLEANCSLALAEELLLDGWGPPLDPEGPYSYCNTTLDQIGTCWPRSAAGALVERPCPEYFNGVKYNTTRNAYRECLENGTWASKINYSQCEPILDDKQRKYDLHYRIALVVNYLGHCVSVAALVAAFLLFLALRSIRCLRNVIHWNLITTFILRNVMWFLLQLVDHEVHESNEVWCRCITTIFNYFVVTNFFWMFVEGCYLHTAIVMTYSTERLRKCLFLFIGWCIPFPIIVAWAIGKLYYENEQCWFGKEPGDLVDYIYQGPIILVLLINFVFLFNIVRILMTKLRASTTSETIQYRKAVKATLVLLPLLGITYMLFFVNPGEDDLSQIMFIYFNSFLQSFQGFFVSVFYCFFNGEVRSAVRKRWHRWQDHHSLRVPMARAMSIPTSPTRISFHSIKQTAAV
T1 sequence (P24387 whole entry): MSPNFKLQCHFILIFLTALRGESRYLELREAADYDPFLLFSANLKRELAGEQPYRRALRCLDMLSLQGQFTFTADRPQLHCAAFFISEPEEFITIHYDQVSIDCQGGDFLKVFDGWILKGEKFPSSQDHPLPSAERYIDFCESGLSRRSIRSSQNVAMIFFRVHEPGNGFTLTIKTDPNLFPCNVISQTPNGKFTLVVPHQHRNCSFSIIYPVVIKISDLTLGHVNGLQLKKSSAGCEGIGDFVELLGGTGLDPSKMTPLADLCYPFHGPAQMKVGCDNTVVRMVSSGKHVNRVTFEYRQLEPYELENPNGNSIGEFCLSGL

[2] = molecular target: T1, Corticotropin-releasing factor receptor 2/Corticotropin-releasing factor-binding protein; experiment: Dose Response confirmation of uHTS hits for small molecule antagonists of the CRF-binding protein and CRF-R2 receptor complex.; type: functional; details: read-out: IC50_Mean
Cytochrome P450 1A2 = molecular target: T2, Cytochrome P450 1A2 (Homo sapiens, UniProt P05177);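 note: PubChem cytochrome P450 panel assay, CYP1A2 panel member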
T2 sequence (P05177 whole entry): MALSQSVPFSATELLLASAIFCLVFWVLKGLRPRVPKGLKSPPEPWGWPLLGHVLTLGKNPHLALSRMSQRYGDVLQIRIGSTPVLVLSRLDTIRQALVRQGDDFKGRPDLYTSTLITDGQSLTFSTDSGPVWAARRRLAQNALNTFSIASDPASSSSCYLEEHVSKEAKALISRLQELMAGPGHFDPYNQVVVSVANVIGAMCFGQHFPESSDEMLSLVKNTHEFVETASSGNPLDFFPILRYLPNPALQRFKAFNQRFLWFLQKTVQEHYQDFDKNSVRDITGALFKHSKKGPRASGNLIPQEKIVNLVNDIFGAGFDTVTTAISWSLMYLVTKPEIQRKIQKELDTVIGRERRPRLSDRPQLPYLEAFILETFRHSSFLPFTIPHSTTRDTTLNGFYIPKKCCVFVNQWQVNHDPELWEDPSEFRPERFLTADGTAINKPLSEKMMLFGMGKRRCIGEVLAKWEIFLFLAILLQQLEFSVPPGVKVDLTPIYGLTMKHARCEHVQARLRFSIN

Cytochrome P450 2C9 = Cytochrome P450 2C9 (Homo sapiens, UniProt P11712)
Chain of Cytochrome P450 2C9 (P11712 whole entry): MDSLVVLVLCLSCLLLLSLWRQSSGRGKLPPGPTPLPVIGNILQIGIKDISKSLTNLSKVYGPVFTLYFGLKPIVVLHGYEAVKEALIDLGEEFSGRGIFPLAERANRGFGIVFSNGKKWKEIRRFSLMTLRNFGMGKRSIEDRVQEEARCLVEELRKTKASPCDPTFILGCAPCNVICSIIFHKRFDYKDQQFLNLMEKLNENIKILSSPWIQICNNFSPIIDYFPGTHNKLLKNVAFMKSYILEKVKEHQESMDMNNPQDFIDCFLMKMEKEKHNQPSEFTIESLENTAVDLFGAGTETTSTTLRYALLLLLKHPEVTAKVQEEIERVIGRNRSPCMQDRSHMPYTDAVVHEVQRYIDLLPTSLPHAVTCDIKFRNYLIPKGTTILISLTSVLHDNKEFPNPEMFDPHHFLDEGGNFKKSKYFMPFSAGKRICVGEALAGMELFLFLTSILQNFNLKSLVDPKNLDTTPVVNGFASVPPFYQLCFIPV

[3] = molecular target: T3, Heat shock factor protein 1 (Mus musculus, UniProt P38532); experiment: HSF1 potentiators in luciferase reporter cells, confirmation, cell-based, NIH3T3, luminescence, dose retest (AID 435004); type: functional;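 note: stress induced by proteasome inhibitor MG132 added 30 min after compound; luciferase reporter driven by HSF1 response element in NIH3T3 cells; actives raise luminescence as potentiators of the MG132 stress response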
T3 sequence (P38532 whole entry): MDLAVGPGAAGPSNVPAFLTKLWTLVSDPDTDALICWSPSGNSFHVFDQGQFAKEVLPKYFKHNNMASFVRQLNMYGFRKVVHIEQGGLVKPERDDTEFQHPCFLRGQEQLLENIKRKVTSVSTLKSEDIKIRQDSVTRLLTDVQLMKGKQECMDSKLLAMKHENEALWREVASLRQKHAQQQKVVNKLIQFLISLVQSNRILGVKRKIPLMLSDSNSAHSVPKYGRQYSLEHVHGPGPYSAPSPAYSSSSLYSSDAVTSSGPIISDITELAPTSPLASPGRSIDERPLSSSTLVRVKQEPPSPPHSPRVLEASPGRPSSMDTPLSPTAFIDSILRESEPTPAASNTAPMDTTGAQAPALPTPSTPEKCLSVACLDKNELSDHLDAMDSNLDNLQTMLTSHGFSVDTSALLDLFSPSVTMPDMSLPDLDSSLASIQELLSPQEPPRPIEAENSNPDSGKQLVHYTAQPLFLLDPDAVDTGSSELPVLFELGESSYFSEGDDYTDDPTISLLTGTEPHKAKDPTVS

P388/ADR = experiment: cells; type: functional; details: Mus musculus
SN12K1 = experiment: cells; type: functional; details: Homo sapiens
P388 = experiment: cells; type: functional; details: Mus musculus

Chain of Cytochrome P450 3A4 (P08684 whole entry): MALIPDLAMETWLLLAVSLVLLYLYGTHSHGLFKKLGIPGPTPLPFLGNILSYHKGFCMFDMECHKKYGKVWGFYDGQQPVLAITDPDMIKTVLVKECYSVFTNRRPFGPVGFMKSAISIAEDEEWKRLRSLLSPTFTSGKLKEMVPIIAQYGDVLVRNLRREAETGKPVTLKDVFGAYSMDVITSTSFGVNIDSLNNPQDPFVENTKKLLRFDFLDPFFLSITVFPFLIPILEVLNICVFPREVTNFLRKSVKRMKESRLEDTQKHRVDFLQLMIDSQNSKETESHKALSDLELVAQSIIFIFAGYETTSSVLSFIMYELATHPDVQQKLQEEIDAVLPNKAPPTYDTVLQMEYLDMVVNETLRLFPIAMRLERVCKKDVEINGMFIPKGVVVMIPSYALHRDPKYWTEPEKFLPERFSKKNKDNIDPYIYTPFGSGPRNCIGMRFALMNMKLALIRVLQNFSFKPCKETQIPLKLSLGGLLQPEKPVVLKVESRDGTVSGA

| Structure (SMILES) | AC50 (Cytochrome P450 3A4) | GI50 (P388/ADR) | GI50 (SN12K1) | GI50 (P388) | other results |
| --- | --- | --- | --- | --- | --- |
| O=c1c(-c2ccccc2)nc2cnc(N3CCOCC3)nc2n1-c1ccccc1 | 20 µM (inconclusive) | – | – | – | – |
| COCCNC(=O)COc1ccc(OCCNC[C@@H](O)COc2ccccc2)cc1 | 31.6 µM (inconclusive) | – | – | – | – |
| CCN1C(=O)[C@H]2[C@H]3[C@H](O)[C@H](O)C/C(=N/O[C@@H](C)c4cn([C@H](CO)Cc5ccccc5)nn4)[C@@H]3CC[C@@H]2C1=O | 3.16 µM (inconclusive) and 5.01 µM (inconclusive) | – | – | – | – |
| CC1CCN(S(=O)(=O)c2ccc3c(c2)NC(=O)CS3)CC1 | – | – | – | – | EC50 [1]: > 53 µM (inactive); IC50 [2]: > 47.1 µM (inactive) |
| N=C(Nc1ccc(I)cc1)NC1C2CC3CC(C2)CC1C3 (stereo unspecified) | 15.8 µM (inconclusive) | – | – | – | AC50 (Cytochrome P450 1A2): 39.8 µM (inconclusive) |
| COc1ccc(CNc2nc3nc4c(c(O)n3n2)CCC4)cc1 | 39.8 µM (inconclusive) | – | – | – | AC50 (Cytochrome P450 2C9): 22.4 µM (inconclusive) |
| Clc1ccc(-n2cc(COCc3ccccc3)nn2)cc1 | – | – | – | – | EC50 [1]: > 53 µM (inactive); EC50 [3]: > 260 µM (inconclusive); IC50 [2]: > 47.1 µM (inactive) |
| Cn1cnnc1SCC(=O)n1c2ccccc2c2ccccc21 | 25.1 µM (inconclusive) | – | – | – | AC50 (Cytochrome P450 2C9): 0.00562 µM (inconclusive) |
| COCC(=O)N1CCC[C@@]2(CCN(Cc3ccc(C#N)cc3)C2)C1 | 12.6 µM (inconclusive) | – | – | – | – |
| O=C1c2ccccc2C(O)(C(=O)O)C1(O)CC=C(Cl)Cl (stereo unspecified) | – | > 70.3 µM (inactive) | > 125 µM (inactive) | > 125 µM (inactive) | – |
| O=C(O)C(Cc1cccs1)NC(=O)C(F)(F)F (stereo unspecified) | – | > 100 µM (inactive) | > 100 µM (inactive) | > 57.9 µM (inactive) | – |
| COc1cc2ccccc2cc1C(=O)N/N=C/c1ccc2c(c1)OCO2 | – | – | – | – | EC50 [1]: > 53 µM (inactive); IC50 [2]: > 47.1 µM (inactive) |
| CS(=O)(=O)OCCCNCCCOS(C)(=O)=O | – | 392 µM (inactive) | 753 µM (inactive) | 418 µM (inactive) | – |
| CC(C)[C@H](NC(=O)OC(C)(C)C)C(=O)N/N=C/c1ccc2nccnc2c1 | – | – | – | – | EC50 [1]: > 53 µM (inactive); IC50 [2]: > 47.1 µM (inactive) |
| CCCCCCCCCCCCOCCCOP(=O)([O-])OCC[N+](C)(C)C | – | > 100 µM (inactive) | > 100 µM (inactive) | 27.9 µM (inactive) | – |
| CCn1c(=O)c(C(=O)O)c(Cl)c2cc3c(cc21)OCO3 | – | > 100 µM (inactive) | > 100 µM (inactive) | > 100 µM (inactive) | – |
| CC1CC(C)(O)C2C3(C)CCCC2(COC3=O)C12CCC1(CCOC1=O)O2 (stereo unspecified) | – | 141 µM (inactive) | > 250 µM (inactive) | > 250 µM (inactive) | – |
| CC1(C)N=C(N)N=C(N)N1c1ccc(CCc2ccccc2)cc1 | – | 22.2 µM (inactive) | 0.533 µM (active) | < 0.01 µM (active) | – |
| CC(C)CCCC(C)[C@H]1CCC(C2C[C@@H](O)[C@@H]3CC(O)[C@@H](O)C[C@]3(CO)C2=O)[C@]1(C)CCO (stereo partly specified) | – | 27 µM (inactive) | 18.7 µM (inactive) | 17.5 µM (inactive) | – |
| COc1ccc(/C=N/OCc2nc3c4c(ncn3n2)Oc2ccc3ccccc3c2C4c2ccccc2)cc1 (stereo unspecified) | 39.8 µM (inconclusive) | – | – | – | AC50 (Cytochrome P450 2C9): 1.26 µM (inconclusive) |
| OCC1OC(n2cnc3c2NC=NC[C@H]3O)C(O)C1O (stereo partly specified) | – | > 366 µM (inactive) | 224 µM (inactive) | > 366 µM (inactive) | – |
| O=c1onc2cnc3ccccc3n12 | 31.6 µM (inconclusive) | – | – | – | AC50 (Cytochrome P450 2C9): 39.8 µM (inconclusive) |
| C[C@]12CC[C@H](OC3OC(CO)C(O)C(O)C3O)C[C@H]1CC[C@@H]1[C@@H]2CC[C@]2(C)[C@@H](C3=CCOC3=O)CC[C@]12O (stereo partly specified) [ACTODIGIN] | – | 6.12 µM (inactive) | 11 µM (inactive) | 7.76 µM (inactive) | – |
| CC(C)c1oc(=O)cc2c1C(O)C1OC(=O)C3(C)C(O)C4OC4C2(C)C13 (stereo unspecified) [NAGILACTONE] | – | 2.52 µM (inactive) | 1.46 µM (inactive) | 0.365 µM (active) | – |

Source: ChEMBL document CHEMBL1201862, “PubChem BioAssay data set” (2004)
